The values that follow come from patent US4985447A, “Certain benzoquinones, naphthoquinones and derivatives thereof which exhibit thromboxane A2 synthetase inhibition or receptor antagonism and the like” (Takeda Chemical Industries, Ltd., priority 1986, dated 1991).

One assay deals with T1, 5-lipoxygenase (Rattus norvegicus, UniProt P12527).
T1 construct: endogenous in cells; host or cells: RBL-1 cells (rat basophilic leukemia)
T1 sequence (P12527 1-673): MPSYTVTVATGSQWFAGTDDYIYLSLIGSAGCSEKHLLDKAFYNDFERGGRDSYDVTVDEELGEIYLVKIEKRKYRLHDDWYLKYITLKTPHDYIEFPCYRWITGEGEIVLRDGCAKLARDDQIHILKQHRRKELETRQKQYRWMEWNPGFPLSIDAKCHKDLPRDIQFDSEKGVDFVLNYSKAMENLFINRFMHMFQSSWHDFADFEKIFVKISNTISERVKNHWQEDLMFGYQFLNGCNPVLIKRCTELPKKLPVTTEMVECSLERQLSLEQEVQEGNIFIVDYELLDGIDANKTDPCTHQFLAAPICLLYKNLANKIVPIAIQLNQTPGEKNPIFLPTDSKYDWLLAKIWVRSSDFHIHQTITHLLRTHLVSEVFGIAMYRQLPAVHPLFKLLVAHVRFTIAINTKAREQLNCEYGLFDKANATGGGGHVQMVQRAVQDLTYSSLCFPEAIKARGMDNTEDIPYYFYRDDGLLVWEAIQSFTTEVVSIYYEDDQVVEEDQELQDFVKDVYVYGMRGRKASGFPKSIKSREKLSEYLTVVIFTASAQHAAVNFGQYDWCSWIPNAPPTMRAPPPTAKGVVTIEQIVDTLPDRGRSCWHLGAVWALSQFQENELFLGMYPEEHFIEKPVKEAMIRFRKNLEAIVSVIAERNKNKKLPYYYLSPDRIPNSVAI
The assay can be described thus: Inhibition of 5-lipoxygenase (production of 5-HETE in RBL-1 cells). The class given is cell-based, rat (RBL-1, rat basophilic leukemia cells). The following applies: for inhibition at 1 µM: 10^-6 M; for inhibition at 0.1 µM: 10^-7 M. As to the method:
Inhibition of 5-lipoxygenase
10^7 RBL-1 cells (rat basophilic leukemia cells) were suspended in 0.5 ml of MCM (mast cell medium ). To the suspension was subsequently added a solution consisting of 0.5 ml of MCM, 50 μg of arachidonic acid, 10 μg of A-23187 (calcium ionophore, Eli Lilly), and a solution of a quinone compound in ethanol at the final concentration of 1 μM, 0.1 μM, 0.01 μM or 0.001 μM of the test compound was added and allowed to react at 37° C. for 20 minutes. After the reaction, 4 ml of ethanol containing 1,4-dimethoxy-2-methyl-3-(3-methoxypropyl)naphthalene as an internal standard were added, mixed well by shaking, and kept at room temperature for 10 minutes. Then the mixture was centrifuged for 10 minutes (2000 rpm), and the supernatant was separated. The supernatant was concentrated to dryness under reduced pressure. To the concentrate, 0.5 ml of 60% aqueous methanol was added. One hundred μl of this solution was subjected to high performance liquid chromatography for quantitative analysis of 5-HETE (5-hydroxyeicosatetraenoic acid). The amount of 5-HETE was analyzed by measurement of the absorbance at […] with a UV absorption monitor.
Inhibitory effect (IE) of production of 5-HETE is expressed by (1-b/a)×100, wherein a is the peak height or the area corrected with the peak due to the internal standard in the absence of the quinone compound, and b is the peak hight or peak area corrected with the peak due to the internal standard in the presence of the quinone compound.

Assay [1] relates to lipid peroxide in rat brain homogenate. In words: Inhibition of production of lipid peroxide in rat brain homogenate. It counts as biochemical, rat (Sprague-Dawley). As to the method: Procedure: Sprague-Dawley rats (male, 9-15 weeks old) anesthetized with pentobarbital (50 mg/kg, intraperitoneal administration) were venesected and the brain tissue was resected. The tissue was homogenized in phosphate buffer (pH 7.4), and used as a 5% homogenate (on weight basis). The brain homogenate was allowed to react at 37° C. for 1 hour, and the amount of lipid peroxide produced was determined with the thiobarbituric acid method according to the method of Okawa et al. (Analytical Biochem 95 551, 1979). The drug was added to the 5% homogenate before the reaction at 37° C. for 1 hour so that the final concentration might be 5×10^-7 or 10^-6 M. Inhibition of production of lipid peroxide was expressed as the rate of inhibition in % of the amount produced in the solvent(DMSO)-treated group.

Structures are written as SMILES.

In general, inhibition refers to the relative decrease from the control value, in per cent. Read a low inhibition as a weak effect. At 5-lipoxygenase, `CC1=C(C)C(=O)C(C(C)c2cccnc2)=C(C)C1=O` (centres unmarked) [Compound No. 1, 3,5,6-trimethyl-2-[1-(3-pyridyl)ethyl]-1,4-benzoquinone] came in with an inhibition at 1 µM of 84%. This compound had an inhibition at 0.1 µM against 5-lipoxygenase of 46%. Besides, the “Inhibition of production of lipid peroxide in rat brain homogenate” value (“Inhibition … in rat brain homogenate” below) is 6% in assay [1] (5 × 10^-7 M) and 90% in assay [1] (10^-6 M).
On 5-lipoxygenase, `CC1=C(C)C(=O)C(C(CCCCCC(=O)O)c2cccnc2)=C(C)C1=O` (centres unmarked) [Compound No. 13, 7-(3-pyridyl)-7-(3,5,6-trimethyl-1,4-benzoquinon-2-yl)heptanoic acid] displayed an inhibition at 1 µM of 64% and an inhibition at 0.1 µM of 16%. Also, in assay [1] (5 × 10^-7 M), the “Inhibition … in rat brain homogenate” value worked out at 20%. For the same compound, the “Inhibition … in rat brain homogenate” value in assay [1] (10^-6 M) is on record as 84%.
